# Values quoted from earlier work, collected in patent publication US20100112181A1, “Recovery of Antioxidants from Decaffeination Process” (priority 2008, published 2010).
# Details: reported by K. Iwai et al., 2004
substance,measurement,value
dicaffeoylquinic acids [di-CQA's],antioxidant activity relative to CQA's (in words),higher antioxidant activity than the CQA's
